Blank lines part the entries; values can stand above or below the compound they belong to. The source made the active and inactive calls. The rule behind the calls is not given here.
Experiments:
[1] = molecular target: Ribosomal protein S6 kinase alpha-3 (Homo sapiens, UniProt P51812); assay: Inhibition of RSK2 (unknown origin) assessed as phosphorylation by Western lightning enhanced chemiluminescent reagent/HRP activity assay
[2] = test system: MCF7; assay: Antiproliferative activity against human MCF7 cells at 100 uM after 48 hrs by CellTiterGlo assay; format: functional
[3] = molecular target: Ribosomal protein S6 kinase alpha-1 (Homo sapiens) (UniProt Q15418); assay: Inhibition of RSK in PMA-stimulated human MCF7 cells assessed as decrease in intensity of band at 65 and 27 kDa at 100 uM by immunoblotting analysis; format: cell-based
[4] = test system: MCF7; assay: Reduction in cyclin D1 in PMA-stimulated human MCF7 cells at 100 uM by immunoblotting analysis; format: functional, cell-based
[5] = test system: MCF7; assay: Increase in phosphorylation motif of protein kinase A in human MCF7 cells at 100 uM by immunoblotting analysis; format: cell-based
[6] = molecular target: Ribosomal protein S6 kinase alpha-1 (Homo sapiens) (UniProt Q15418); assay: Inhibition of RSK in PMA-stimulated human MCF7 cells assessed as increase in phosphorylation of eEF2 at 100 uM by immunoblotting analysis; format: cell-based
[7] = test system: MCF7; assay: Reduction in cyclin D1 in PMA-stimulated human MCF7 cells at 50 uM by immunoblotting analysis; format: functional, cell-based
[8] = test system: MCF7; assay: Antiproliferative activity against human MCF7 cells at 25 uM after 48 hrs by CellTiterGlo assay; format: functional; settings: MCF7, 48 h
[9] = test system: MCF7; assay: Effect on phosphorylation motif of tyrosine kinase in human MCF7 cells at 50 uM by immunoblotting analysis; format: cell-based
[10] = test system: MCF7; assay: Antiproliferative activity against human MCF7 cells at 50 uM after 48 hrs by CellTiterGlo assay; format: functional, cell-based
[11] = molecular target: Ribosomal protein S6 kinase alpha-1 (Homo sapiens) (UniProt Q15418); assay: Inhibition of RSK in PMA-stimulated human MCF7 cells assessed as decrease in intensity of band at 65 and 27 kDa at 50 uM by immunoblotting analysis; format: cell-based
[12] = test system: MCF-10A; assay: Antiproliferative activity against human MCF10A cells at 50 uM after 48 hrs by CellTiterGlo assay; format: functional, cell-based
[13] = test system: MCF-10A; assay: Antiproliferative activity against human MCF10A cells at 25 uM after 48 hrs by CellTiterGlo assay; format: functional, cell-based
[14] = molecular target: Ribosomal protein S6 kinase alpha-1 (Homo sapiens) (UniProt Q15418); assay: Inhibition of RSK in PMA-stimulated human MCF7 cells assessed as increase in phosphorylation of eEF2 at 50 uM by immunoblotting analysis; format: cell-based
[15] = molecular target: Protein kinase C (PKC) (Homo sapiens) (UniProt O94806+P41743+P17252+P05129+Q05655+P05771+Q05513+Q02156+P24723+Q15139+Q04759); assay: Effect on phosphorylation motif of protein kinase C in human MCF7 cells at 50 uM by immunoblotting analysis; format: cell-based
[16] = test system: MCF7; assay: Increase in phosphorylation motif of protein kinase A in human MCF7 cells at 50 uM by immunoblotting analysis; format: cell-based
[17] = test system: MCF-10A; assay: Antiproliferative activity against human MCF10A cells at 100 uM after 48 hrs by CellTiterGlo assay; format: functional, cell-based

Chain of Ribosomal protein S6 kinase alpha-3 (P51812 whole entry): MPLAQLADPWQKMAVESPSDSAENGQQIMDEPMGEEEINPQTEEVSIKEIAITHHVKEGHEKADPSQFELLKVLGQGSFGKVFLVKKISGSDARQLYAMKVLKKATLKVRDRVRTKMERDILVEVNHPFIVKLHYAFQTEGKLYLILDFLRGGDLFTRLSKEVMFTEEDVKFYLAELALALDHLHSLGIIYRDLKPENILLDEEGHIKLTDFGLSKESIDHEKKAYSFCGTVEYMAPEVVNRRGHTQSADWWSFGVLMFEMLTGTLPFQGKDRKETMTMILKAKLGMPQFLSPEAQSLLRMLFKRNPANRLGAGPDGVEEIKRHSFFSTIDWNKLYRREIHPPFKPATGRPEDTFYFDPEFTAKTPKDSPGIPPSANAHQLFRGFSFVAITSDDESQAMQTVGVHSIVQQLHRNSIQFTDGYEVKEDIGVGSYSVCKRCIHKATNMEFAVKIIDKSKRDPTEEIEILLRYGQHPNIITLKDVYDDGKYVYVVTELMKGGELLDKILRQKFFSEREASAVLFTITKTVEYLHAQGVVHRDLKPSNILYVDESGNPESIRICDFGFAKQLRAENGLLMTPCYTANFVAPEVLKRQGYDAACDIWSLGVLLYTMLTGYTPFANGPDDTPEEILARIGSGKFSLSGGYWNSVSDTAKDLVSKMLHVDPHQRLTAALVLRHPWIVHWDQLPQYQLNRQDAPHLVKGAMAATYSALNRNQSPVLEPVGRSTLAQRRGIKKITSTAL
Chain of Ribosomal protein S6 kinase alpha-1 (Homo sapiens) (Q15418 whole entry): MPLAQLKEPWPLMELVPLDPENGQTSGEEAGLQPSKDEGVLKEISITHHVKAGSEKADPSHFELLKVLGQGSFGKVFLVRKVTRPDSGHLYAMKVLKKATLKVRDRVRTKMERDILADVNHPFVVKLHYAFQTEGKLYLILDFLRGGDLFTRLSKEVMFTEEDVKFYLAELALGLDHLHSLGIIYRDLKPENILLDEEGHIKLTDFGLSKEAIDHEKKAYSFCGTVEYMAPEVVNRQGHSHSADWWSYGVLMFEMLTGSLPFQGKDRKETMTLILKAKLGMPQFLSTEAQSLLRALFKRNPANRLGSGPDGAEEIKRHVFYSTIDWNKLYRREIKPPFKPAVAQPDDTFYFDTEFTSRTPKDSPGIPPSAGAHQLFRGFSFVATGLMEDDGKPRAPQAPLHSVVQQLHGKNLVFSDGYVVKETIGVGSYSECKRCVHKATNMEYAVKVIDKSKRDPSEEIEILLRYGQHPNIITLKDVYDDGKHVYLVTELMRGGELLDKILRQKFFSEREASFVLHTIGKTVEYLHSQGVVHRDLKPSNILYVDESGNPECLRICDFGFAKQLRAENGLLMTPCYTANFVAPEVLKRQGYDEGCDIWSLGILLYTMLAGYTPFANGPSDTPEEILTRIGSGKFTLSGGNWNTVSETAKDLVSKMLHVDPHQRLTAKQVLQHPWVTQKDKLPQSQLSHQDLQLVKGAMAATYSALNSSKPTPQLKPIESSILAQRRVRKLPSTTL

IC50 [1]: Not Active
SMILES: CC(=O)O[C@@H]1[C@H](O)[C@@H](Oc2c(-c3ccc(O)cc3)oc3cc(O)cc(O)c3c2=O)CC[C@H]1OC(C)=O

IC50 ([1]; read-out: IC50): 8.93 µM
SMILES: CC(=O)O[C@H]1[C@@H](O)[C@H](Oc2c(-c3ccc(O)cc3)oc3cc(O)cc(O)c3c2=O)CC[C@@H]1OC(C)=O

inhibition [3]: Active | Activity [6]: Active
SMILES: CC(=O)O[C@@H]1[C@@H](OC(C)=O)[C@@H](O)[C@H](Oc2c(-c3ccc(O)cc3)oc3cc(O)cc(O)c3c2=O)O[C@H]1C
inhibition at 100 µM ([2]; MCF7, 48 h): 60% | inhibition [4]: Active | Activity [5]: Active

IC50 ([1]; read-out: IC50): 0.27 µM | inhibition [11]: inactive | Activity [14]: Active | Activity [15]: inactive
SMILES: CC(=O)O[C@@H]1[C@@H](OC(C)=O)[C@@H](O)[C@H](Oc2c(-c3ccc(O)cc3)oc3cc(O)cc(O)c3c2=O)C[C@H]1C
Activity [7]: inactive | inhibition at 25 µM [8]: 60% | Activity [9]: inactive | inhibition [10]: Active | inhibition [12]: Active | inhibition [13]: Active | Activity [16]: inactive

IC50 [1]: Not Active
SMILES: CC(=O)O[C@H]1[C@@H](O)[C@H](OC(C)=O)[C@@H](C)C[C@@H]1Oc1c(-c2ccc(O)cc2)oc2cc(O)cc(O)c2c1=O

IC50 ([1]; read-out: IC50): 1.6 µM | inhibition [11]: inactive | Activity [14]: Active | Activity [15]: inactive
SMILES: CC(=O)O[C@@H]1[C@@H](O)[C@@H](OC(C)=O)[C@H](Oc2c(-c3ccc(O)cc3)oc3cc(O)cc(O)c3c2=O)C[C@H]1C
Activity [7]: inactive | Activity [9]: inactive | inhibition [10]: Active | inhibition [12]: Active | Activity [16]: inactive

IC50 [1]: Not Active
SMILES: CC(=O)O[C@H]1[C@H](O)[C@H](O)[C@@H](Oc2c(-c3ccc(O)cc3)oc3cc(O)cc(O)c3c2=O)C[C@@H]1C
inhibition [2]: inactive | inhibition [17]: inactive

IC50 [1]: Not Active
SMILES: CC(=O)O[C@@H]1[C@H](O)[C@@H](Oc2c(-c3ccc(O)cc3)oc3cc(O)cc(O)c3c2=O)C[C@H](C)[C@H]1OC(C)=O

IC50 ([1]; read-out: IC50): 1.23 µM
SMILES: CC(=O)O[C@@H]1[C@@H](O)[C@@H](O)[C@H](Oc2c(-c3ccc(O)cc3)oc3cc(O)cc(O)c3c2=O)C[C@H]1C
inhibition [2]: Active | inhibition [17]: Active

From ChEMBL document CHEMBL3352279, “Synthesis and Structure-Activity Relationship Study of 5a-Carbasugar Analogues of SL0101” (ACS Med Chem Lett, 2015)
